Data as given in patent US20260262655A1, “INHIBITION OF SEED GERMINATION USING A COMBINATION OF BIOLOGICAL AND CHEMICAL INHIBITORS OF ETHYLENE” (Verdesian Life Sciences U.S., LLC, priority 2023, published 2026).
Several values for one entry are separate records, joined by “and”; a condition that tells them apart may be missing. Identical values can stand only once.

Experiments:
Type in all cases: in vivo
[1] = test system: Cheatgrass, Bromus tectorum; assay: Petri dish seed germination test on cheatgrass, with Colby analysis; details: for %_Germ—14DAP: Petri Dish Run 1, germination at day 14; for %_Germ11DAP: Petri Dish Run 2, germination at day 11, repetitions R1-R3; for %_Germ_8DAP: germination at day 8, Run1 R0 and Run2 R1-R3
Description: (§1) Place 10 seeds on moistened filter paper in 100 mm petri dishes, with three petri dishes per treatment. Using a pipette, apply 0.01 mL of the solution (water for controls, Pseudomonas for treated) evenly over the top surface of each seed. For the ethylene inhibitor treatment, place a small aluminum weigh boat containing lmL inhibitor solution in the petri dish. Ethylene inhibitor solution should be replaced daily. Cover seeds with another sheet of moistened filter paper before closing the petri dish. As needed, moisten the filter paper throughout the experiment with 1 mL of water at a time. Allow plants to germinate and grow for 11 days, removing the filter paper on day 5. Record the number of seeds germinated each day. Image analysis may be used at the end of the experiment to record total root and shoot growth.
One species: Cheatgrass, Bromus tectorum
(§2) Three timings of Pseudomonas fluorescens strain D7 application: 0, 3, and 7 days after planting
(§3) Four seed treatments: water (control), Pseudomonas fluorescens strain D7, 1-MCP, Pseudomonas fluorescens strain D7 and 1-MCP combination
Run 1: 12 seeds/dish, 1 petri dish/treatment combo
Run 2: 10 seeds/dish, 3 petri dishes/treatment combo
A Colby Analysis was carried out for the data obtained in Example 2. The first data set is shown in Table 1 below, where cheatgrass (Bromus tectorum) was treated with Pseudomonas fluorescens strain D7 (D7) and 1-methylcyclopropene (1-MCP) alone or in combination at days 0, 3, and 7 of the treatment period. The percentage of germination was then determined at day 14 of the treatment period.
The Colby equation is a standard method for determining the presence of synergy. The Colby equation is as follows:
[formula] • wherein X and Y are the effects of the active agents (e.g., Pseudomonas fluorescens strain D7 (D7) and 1-methylcyclopropene (1-MCP)) applied alone (expressed as % of control).
The standard Colby equation interpretation is: If Observed Value is greater than the Expected Value, synergy exists. However, based on the goal of reducing germination in this study, the appropriate interpretation here is: If the Observed Value is less than the Expected Value, synergy.

[2] = test system: Kentucky Bluegrass; assay: Petri dish seed germination test on Kentucky Bluegrass; details: Kentucky Bluegrass seeds
Description: as §1, with “1 mL” for “lmL”
(§4) Two species: Tall Fescue and Kentucky Bluegrass
as §2, §3
(§5) Twelve seeds/petri dish (TF), 40 seeds/petri dish (KB)×3 petri dishes/treatment combination

[3] = test system: Tall Fescue; assay: Petri dish seed germination test on Tall Fescue; details: Tall Fescue seeds
Description: as §1, with “1 mL” for “lmL”
as §4, §2, §3, §5

[4] = Petri Dish Run 2 at Day 11, treatment Day 0, mean of repetitions
[5] = Petri Dish Run 2 at Day 11, treatment Day 3, mean of repetitions
[6] = Petri Dish Run 2 at Day 11, treatment Day 7, mean of repetitions
[7] = treatment Day 0, day 8, mean of Run1 and Run2 repetitions
[8] = treatment Day 3, day 8, mean of Run1 and Run2 repetitions
[9] = treatment Day 7, day 8, mean of Run1 and Run2 repetitions

| Molecule | %_Germ—14DAP ([1]; treatment Day 0) [%] | %_Germ—14DAP ([1]; treatment Day 3) [%] | %_Germ—14DAP ([1]; treatment Day 7) [%] | Day 8% Germ Mean [1, 4] [%] | Day 8% Germ Mean [1, 5] [%] | Day 8% Germ Mean [1, 6] [%] | Day 8% Germ Mean [1, 7] [%] | Day 8% Germ Mean [1, 8] [%] | Day 8% Germ Mean [1, 9] [%] | also measured |
| --- | --- | --- | --- | --- | --- | --- | --- | --- | --- | --- |
| Pseudomonas fluorescens strain D7 | 58.33 | 83.33 | 75.00 | 56.67 | 76.67 | 73.33 | 31.67 | 73.33 | 65.00 | %_Germ11DAP ([1]; treatment Day 0, listed as D7 Alone): 60% and 50%; %_Germ11DAP ([1]; treatment Day 3, listed as D7 Alone): 100% and 60% and 70%; %_Germ11DAP ([1]; treatment Day 7, listed as D7 Alone): 90% and 60% and 70%; influence of application time on germination outcomes ([1]; application 0, 3 or 7 days after planting): early application being the most effective; %_Germ_8DAP ([1]; treatment Day 3): 83.33% and 100.0% and 60.0% and 50.0%; %_Germ_8DAP ([1]; treatment Day 7): 50.00% and 80.0% and 60.0% and 70.0%; effect on germination [2]: did not affect germination; effect on germination [3]: did not affect germination |
| CC1=CC1 [1-MCP, 1-methylcyclopropene, reference compound] | 75.00 | 25.00 | 100.00 | 86.67 | 83.33 | 83.33 | 81.25 | 61.25 | 75.83 | %_Germ11DAP ([1]; treatment Day 0, listed as 1-MCP alone): 80% and 90%; %_Germ11DAP ([1]; treatment Day 3, listed as 1-MCP alone): 80% and 90%; %_Germ11DAP ([1]; treatment Day 7, listed as 1-MCP alone): 100% and 70% and 80%; %_Germ_8DAP ([1]; treatment Day 0, listed as MCP): 75.00% and 80.0% and 90.0%; %_Germ_8DAP ([1]; treatment Day 7, listed as MCP): 83.33% and 90.0% and 60.0% and 70.0% |
